“Also recorded” adds a separate entry of the source. Structures can show the parent of a compound that is named as a salt.

Series [1] deals with HeLa cells. The conditions noted are these: 10 µM.
A short description of series [2]: in vitro. To be noted: human.
In series [3] the target is PV RNA-dependent RNA polymerase 3Dpol (Poliovirus type 1, UniProt P03300). It counts as biochemical.
The subject of series [4] is Sb-Gluc (modified PV expressing Gaussia Luciferase). It counts as cell-based, poliovirus. To be noted: for Ec (%), inhibitory effect on poliovirus replication: 10 µM.
Series [5] relates to WT-PV (wild type PV Mahoney). It is filed as cell-based, poliovirus. To be noted: 25 μM, 48 h.
The test system of series [6] is WT-PV (wild type PV Mahoney). The series is described as follows: microbe, parasite or virus in culture. It is filed as cell-based, poliovirus.
Series [7] concerns Sb-GLuc. It counts as cell-based, poliovirus.
Series [8] deals with 293T cells. Nature of the series: Cytotoxicity in 293T cells. To be noted: up to 100 μM. It counts as cell-based.
Series [9] relates to Vero cells. Nature of the series: Viability of Vero cells. It counts as cell-based. To be noted: 0.1 μM.
Series [10] is classed as in vivo. To be noted: rhesus macaques, pilot PK studies.

Chain of PV RNA-dependent RNA polymerase 3Dpol (P03300 1749-2209 limits assumed): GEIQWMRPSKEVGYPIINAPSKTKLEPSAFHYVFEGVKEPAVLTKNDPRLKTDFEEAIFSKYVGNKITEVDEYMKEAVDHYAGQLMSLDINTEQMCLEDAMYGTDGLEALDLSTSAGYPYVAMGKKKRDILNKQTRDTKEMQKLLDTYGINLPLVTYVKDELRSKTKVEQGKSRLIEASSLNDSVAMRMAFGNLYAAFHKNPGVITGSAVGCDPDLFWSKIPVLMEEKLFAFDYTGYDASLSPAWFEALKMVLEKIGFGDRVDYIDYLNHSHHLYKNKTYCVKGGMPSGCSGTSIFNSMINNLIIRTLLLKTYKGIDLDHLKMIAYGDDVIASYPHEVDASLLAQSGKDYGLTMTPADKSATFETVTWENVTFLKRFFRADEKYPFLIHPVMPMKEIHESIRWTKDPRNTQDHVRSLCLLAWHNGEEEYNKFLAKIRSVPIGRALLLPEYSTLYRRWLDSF

`Nc1nc(O)c2[nH]nnc2n1` [azaguanine-8]: the “Vc (%), cell viability rate on HeLa cells” value (“Vc (%), cell viability rate” below) in series [1] came to 47.54%.

As for `CCCC1C(=O)N2C(N(C)C)=Nc3ccc(C)cc3N2C1=O` (stereo not drawn) [azapropazone], the viability (as a rule, a read-out of living cells in per cent, often relative to untreated cells) at 10 µM in [2] worked out at 91.2%.

Consider `CC(=O)O[C@]1(C(C)=O)CC[C@H]2[C@@H]3C=C(Cl)C4=CC(=O)[C@@H]5C[C@@H]5[C@]4(C)[C@H]3CC[C@@]21C` [cyproterone acetate], for which the viability at 10 µM in series [2] is 75.4%.

In the case of `Nc1ccn([C@@H]2O[C@H](COP(=O)(O)OP(=O)(O)OP(=O)(O)O)[C@@H](O)C2(F)F)c(=O)n1` [dFdC-TP, 2′,2′-difluoro-2′-deoxycytidine triphosphate], in series [3], the “Inhibition of dsRNA elongation” value is “apparent inhibition; also recorded: weak inhibition” and the “Inhibition of dsRNA synthesis or elongation” value was “complete inhibition”.

With `CCOc1ccc(Cc2nccc3cc(OCC)c(OCC)cc23)cc1OCC` [ethaverine hydrochloride], the viability at 10 µM in series [2] was found to be 88.4%.

In the case of `COc1cc2ncnc(Nc3ccc(F)c(Cl)c3)c2cc1OCCCN1CCOCC1` [gefitinib], the viability at 10 µM in [2] was determined as 80.1%.

As for `Nc1ccn([C@@H]2O[C@H](CO)[C@@H](O)C2(F)F)c(=O)n1` [gemcitabine, 2′,2′-difluoro-2′-deoxycytidine], the IC50 (commonly the concentration at which inhibition is half-maximal) in series [4] (read-out: IC50 against Sb-GLuc on the basis of luminescent signal) turned out to be 2600 nM. In series [5], the “Protection of HeLa cells from WT-PV (plaque assay)” value (“Protection of HeLa cells from WT-PV” below) is “completely protected”. Besides, the “Increase in viral RNA copies of WT-PV” value in series [6] is on record as “No noticeable increase”. The inhibition (usually the drop in the measured response relative to a control, in per cent) at 2 µM in [6] (Enterovirus C, HeLa, read-out: Inhibition on WT-PV replication) is above 90%. The “Inhibition of Sb-GLuc replication in 293T cells” value in series [7] was “inhibited Sb-GLuc replication”. Further, in series [8], the “Cytotoxic effect in 293T cells” value is reported as “without cytotoxic effect”. The “Effect on Vero cells” value in series [9] was “kills Vero cells”. Besides, the “Impact on immune cell counts and liver/kidney functions” value in series [10] is “subtle and reversible impact”. Besides, the viability at 10 µM in series [2] came out at 87.9%.

As to `CCC(C)n1ncn(-c2ccc(N3CCN(c4ccc(OCC5COC(Cn6cncn6)(c6ccc(Cl)cc6Cl)O5)cc4)CC3)cc2)c1=O` (stereo not drawn) [itraconazole], the “Protection of HeLa cells from WT-PV” value in series [5] is on record as “partial protective effect”. Moreover, the viability at 10 µM in series [2] was 79.4%.

In the case of `CC(=O)N1CCN(c2ccc(OCC3COC(Cn4ccnc4)(c4ccc(Cl)cc4Cl)O3)cc2)CC1` (stereo not drawn) [ketoconazole], in [5], the “Protection of HeLa cells from WT-PV” value was “partial protective effect”. Besides, the viability at 10 µM in series [2] is 103%.

As for `NC[C@H]1O[C@H](O[C@H]2[C@H](O[C@@H]3O[C@H](CO)[C@@H](O)[C@H]3O)[C@@H](O)[C@H](N)C[C@@H]2N)[C@H](N)[C@@H](O)[C@@H]1O.O=S(=O)(O)O` [ribostamycin sulfate salt], the “Ec (%), inhibitory effect on poliovirus replication” value (“Ec (%), inhibitory effect” for short) in series [4] amounted to 81.9%. Besides, the “Vc (%), cell viability rate” value in series [1] worked out at 88.8%.

As to `C=C(NC(=O)C(=C)NC(=O)c1csc(C2=N[C@@H]3c4csc(n4)[C@H]4NC(=O)c5csc(n5)[C@H]([C@](C)(O)[C@@H](C)O)NC(=O)[C@H]5CSC(=N5)/C(=C/C)NC(=O)[C@H]([C@@H](C)O)NC(=O)c5csc(n5)[C@]3(CC2)NC(=O)[C@H](C)NC(=O)C(=C)NC(=O)[C@H](C)NC(=O)[C@H]([C@@H](C)CC)N[C@@H]2C=Cc3c([C@H](C)O)cc(nc3[C@H]2O)C(=O)O[C@@H]4C)n1)C(N)=O` [thiostrepton], in series [2], the viability at 10 µM was 87.9%.

As to `Cl.Cl.OCCN1CCN(CC/C=C2/c3ccccc3Sc3ccc(Cl)cc32)CC1` [zuclopenthixol hydrochloride], the “Ec (%), inhibitory effect” value in [4] was determined as 81.8%. Moreover, the “Vc (%), cell viability rate” value in series [1] was found to be 92.0%.

Turning to meclocycline sulfosalicylate, in [4], the “Ec (%), inhibitory effect” value amounted to 82.1%. Further, the “Vc (%), cell viability rate” value in series [1] was 81.5%.

These data come from PMC5754216 (ACS infectious diseases, 2016).
